Data from ChEMBL document CHEMBL1201862, “PubChem BioAssay data set” (2004).
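Grown in 96-well plates, cells were treated for 48 hours with each compound at five concentrations. Insufficient inhibition: endpoint recorded as highest concentration tested. GI50: concentration for 50% inhibition of growth.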 Calls of active or inactive are those of the source. Cut-off read from the data, not from the text of the source: active = GI50 up to about 1.1 µM and inactive = higher.

Key:
Experiment in all cases: NCI tumour cell line growth inhibition, 48 h
NCI-H23 = tested on: NCI-H23
U-251 = tested on: U-251
HOP-92 = tested on: HOP-92
SNB-19 = tested on: SNB-19
K562 = tested on: K562
KM12 = tested on: KM12
CCRF-CEM = tested on: CCRF-CEM
SN12C = tested on: SN12C
BT-549 = tested on: BT-549
SF-539 = tested on: SF-539
M14 = tested on: M14
SF-268 = tested on: SF-268
NCI-H522 = tested on: NCI-H522
OVCAR-3 = tested on: OVCAR-3
OVCAR-5 = tested on: OVCAR-5
OVCAR-4 = tested on: OVCAR-4
MDA-MB-231 = tested on: MDA-MB-231
SK-MEL-2 = tested on: SK-MEL-2
HCC 2998 = tested on: HCC 2998
MOLT-4 = tested on: MOLT-4
CAKI-1 = tested on: CAKI-1
EKVX = tested on: EKVX
786-0 = tested on: 786-0
NCI-H226 = tested on: NCI-H226
HT-29 = tested on: HT-29
UACC-257 = tested on: UACC-257
SR = tested on: SR
HOP-62 = tested on: HOP-62
UO-31 = tested on: UO-31
NCI-H460 = tested on: NCI-H460
TK-10 = tested on: TK-10
HCT-116 = tested on: HCT-116
SNB-75 = tested on: SNB-75
ACHN = tested on: ACHN
SF-295 = tested on: SF-295
T47D = tested on: T47D
COLO 205 = tested on: COLO 205
PC-3 = tested on: PC-3
MCF7 = tested on: MCF7
MDA-N = tested on: MDA-N
SK-MEL-28 = tested on: SK-MEL-28
Hs-578T = tested on: Hs-578T
IGROV-1 = tested on: IGROV-1
SK-MEL-5 = tested on: SK-MEL-5
Malme-3M = tested on: Malme-3M
SW-620 = tested on: SW-620
SK-OV-3 = tested on: SK-OV-3
UACC-62 = tested on: UACC-62
NCI/ADR-RES = tested on: NCI/ADR-RES
DU-145 = tested on: DU-145
MDA-MB-435 = tested on: MDA-MB-435
OVCAR-8 = tested on: OVCAR-8
A498 = tested on: A498
RXF 393 = tested on: RXF 393
RPMI-8226 = tested on: RPMI-8226
A549 = tested on: A549
HCT-15 = tested on: HCT-15

SMILES: C[C@]12OC[C@H](c3ccccc3)N1C(=O)C1[C@H]2CC12SCCS2 (some centres not stated)
- GI50 (NCI-H23): > 100 µM (inactive)
- GI50 (U-251): > 100 µM (inactive)
- GI50 (HOP-92): > 100 µM (inactive)
- GI50 (SNB-19): > 100 µM (inactive)
- GI50 (K562): > 100 µM (inactive)
- GI50 (KM12): > 100 µM (inactive)
- GI50 (CCRF-CEM): > 100 µM (inactive)
- GI50 (SN12C): > 100 µM (inactive)
- GI50 (BT-549): > 100 µM (inactive)
- GI50 (SF-539): > 100 µM (inactive)
- GI50 (M14): > 100 µM (inactive)
- GI50 (SF-268): > 100 µM (inactive)
- GI50 (NCI-H522): > 100 µM (inactive)
- GI50 (OVCAR-3): > 100 µM (inactive)
- GI50 (OVCAR-5): > 100 µM (inactive)
- GI50 (OVCAR-4): > 100 µM (inactive)
- GI50 (MDA-MB-231): > 100 µM (inactive)
- GI50 (SK-MEL-2): > 100 µM (inactive)
- GI50 (HCC 2998): > 100 µM (inactive)
- GI50 (MOLT-4): > 100 µM (inactive)
- GI50 (CAKI-1): > 100 µM (inactive)
- GI50 (EKVX): > 100 µM (inactive)
- GI50 (786-0): > 100 µM (inactive)
- GI50 (NCI-H226): > 100 µM (inactive)
- GI50 (HT-29): > 100 µM (inactive)
- GI50 (UACC-257): > 100 µM (inactive)
- GI50 (SR): > 100 µM (inactive)
- GI50 (HOP-62): > 100 µM (inactive)
- GI50 (UO-31): > 100 µM (inactive)
- GI50 (NCI-H460): > 100 µM (inactive)
- GI50 (TK-10): > 100 µM (inactive)
- GI50 (HCT-116): > 100 µM (inactive)
- GI50 (SNB-75): > 100 µM (inactive)
- GI50 (ACHN): > 100 µM (inactive)
- GI50 (SF-295): > 100 µM (inactive)
- GI50 (T47D): > 100 µM (inactive)
- GI50 (COLO 205): > 100 µM (inactive)
- GI50 (PC-3): > 100 µM (inactive)
- GI50 (MCF7): > 100 µM (inactive)
- GI50 (MDA-N): > 100 µM (inactive)
- GI50 (SK-MEL-28): > 100 µM (inactive)
- GI50 (Hs-578T): > 100 µM (inactive)
- GI50 (IGROV-1): > 100 µM (inactive)
- GI50 (SK-MEL-5): > 100 µM (inactive)
- GI50 (Malme-3M): > 100 µM (inactive)
- GI50 (SW-620): > 100 µM (inactive)
- GI50 (SK-OV-3): > 100 µM (inactive)
- GI50 (UACC-62): > 100 µM (inactive)
- GI50 (NCI/ADR-RES): > 100 µM (inactive)
- GI50 (DU-145): > 100 µM (inactive)
- GI50 (MDA-MB-435): > 100 µM (inactive)
- GI50 (OVCAR-8): > 100 µM (inactive)
- GI50 (A498): > 100 µM (inactive)
- GI50 (RXF 393): > 100 µM (inactive)
- GI50 (RPMI-8226): > 100 µM (inactive)
- GI50 (A549): > 100 µM (inactive)
- GI50 (HCT-15): > 100 µM
